Test results published in PubChem BioAssay (NCI).
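Abbreviation: GI50, concentration required for 50% inhibition of growth. TGI: total growth inhibition.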

Legend:
Test in all cases: inhibition of tumour cell growth, NCI panel, 384-well format
[1] = tested on: OVCAR-5 ovarian
[2] = tested on: SK-OV-3 ovarian
[3] = tested on: A498 renal
[4] = tested on: SF-268 CNS
[5] = tested on: MALME-3M melanoma
[6] = tested on: OVCAR-8 ovarian
[7] = tested on: KM12 colon
[8] = tested on: MOLT-4 leukemia
[9] = tested on: SF-295 CNS
[10] = tested on: HCT-15 colon
[11] = tested on: MDA-MB-231 breast
[12] = tested on: NCI-H23 lung
[13] = tested on: ACHN renal
[14] = tested on: UACC-62 melanoma
[15] = tested on: HOP-62 NSCLC
[16] = tested on: HT29 colon
[17] = tested on: K-562 leukemia
[18] = tested on: SN12C renal
[19] = tested on: HS 578T breast
[20] = tested on: DU-145 prostate
[21] = tested on: RXF 393 renal
[22] = tested on: BT-549 breast
[23] = tested on: MDA-MB-468 breast
[24] = tested on: SK-MEL-28 melanoma
[25] = tested on: HCC-2998 colon
[26] = tested on: PC-3 prostate
[27] = tested on: HOP-92 NSCLC
[28] = tested on: NCI/ADR-RES ovarian
[29] = tested on: SNB-75 CNS
[30] = tested on: NCI-H322M lung
[31] = tested on: SW-620 colon
[32] = tested on: UACC-257 melanoma
[33] = tested on: OVCAR-3 ovarian
[34] = tested on: LOX IMVI melanoma
[35] = tested on: COLO 205 colon
[36] = tested on: MCF7 breast
[37] = tested on: TK-10 renal
[38] = tested on: UO-31 renal
[39] = tested on: SF-539 CNS
[40] = tested on: SNB-19 CNS
[41] = tested on: HCT-116 colon
[42] = tested on: NCI-H226 lung
[43] = tested on: IGROV1 ovarian
[44] = tested on: A549 NSCLC
[45] = tested on: CCRF-CEM leukemia
[46] = tested on: OVCAR-4 ovarian

COc1cc(Nc2ncc3c(n2)-c2ccc(Cl)cc2C(c2c(F)cccc2OC)=NC3)ccc1C(=O)O gave a GI50 [1] of 4.4 µM, a TGI [1] of 30.3 µM and a GI50 [2] of 4.11 µM. The TGI [2] was 22.6 µM, the GI50 [3] was 0.0833 µM and the TGI [3] was 29.6 µM. It also gave a GI50 [4] of 0.0113 µM, a TGI [4] of 0.0549 µM and a GI50 [5] of 17.9 µM. For the same compound, the TGI [5] was 60.7 µM, the GI50 [6] was 7.27 µM and the TGI [6] was 36.9 µM. For the same compound, the GI50 [7] was 0.0838 µM, the TGI [7] was greater than 100 µM and the TGI [8] was 0.0209 µM. For the same compound, the GI50 [9] was 0.088 µM, the TGI [9] was 24.6 µM and the GI50 [10] was 0.0581 µM. For the same compound, the TGI [10] was 37.2 µM, the GI50 [11] was 2.72 µM and the TGI [11] was 23.6 µM. It also gave a GI50 [12] of 1.26 µM, a TGI [12] of 14.9 µM and a GI50 [13] of 1.81 µM. For the same compound, the TGI [13] was 19.7 µM, the GI50 [14] was 0.768 µM and the TGI [14] was 35.4 µM. It also gave a GI50 [15] of 0.179 µM, a TGI [15] of 31.9 µM and a GI50 [16] of 1.49 µM. For the same compound, the TGI [16] was greater than 100 µM, the GI50 [17] was 0.0367 µM and the TGI [17] was 11.5 µM. The GI50 [18] was 0.0522 µM, the TGI [18] was 17 µM and the GI50 [19] was 0.0403 µM. It also gave a TGI [19] of 12.4 µM, a GI50 [20] of 10.6 µM and a TGI [20] of 26.6 µM. The GI50 [21] was 0.0513 µM, the TGI [21] was 7.31 µM and the GI50 [22] was 0.0986 µM. For the same compound, the TGI [22] was 20.1 µM, the GI50 [23] was 0.0199 µM and the TGI [23] was 0.0534 µM. The GI50 [24] was 13.2 µM, the TGI [24] was 51.7 µM and the GI50 [25] was 3.24 µM. The TGI [25] was 47.9 µM, the GI50 [26] was 12 µM and the TGI [26] was 45.2 µM. For the same compound, the GI50 [27] was 2.18 µM, the TGI [27] was 17.2 µM and the GI50 [28] was 0.369 µM. It also gave a TGI [28] of 31.4 µM, a GI50 [29] of 3.1 µM and a TGI [29] of 17 µM. For the same compound, the GI50 [30] was 19.3 µM, the TGI [30] was greater than 100 µM and the GI50 [31] was 0.202 µM. It also gave a TGI [31] of 28.1 µM, a GI50 [32] of 13.7 µM and a TGI [32] of 52.6 µM. It also gave a GI50 [33] of 0.0915 µM, a TGI [33] of 14.6 µM and a GI50 [34] of 0.725 µM. For the same compound, the TGI [34] was 17.8 µM, the GI50 [35] was 0.0376 µM and the TGI [35] was greater than 100 µM. It also gave a GI50 [36] of 1.7 µM, a TGI [36] greater than 100 µM and a GI50 [37] of 4.77 µM. The TGI [37] was 21.7 µM, the GI50 [38] was 4.32 µM and the TGI [38] was 20.7 µM. For the same compound, the GI50 [39] was 0.0651 µM, the TGI [39] was 25.2 µM and the GI50 [40] was 9.37 µM. The TGI [40] was 61.9 µM, the GI50 [41] was 0.0293 µM and the TGI [41] was 25.2 µM. The GI50 [42] was 1.28 µM, the TGI [42] was 10.9 µM and the GI50 [43] was 0.743 µM. For the same compound, the TGI [43] was 13.5 µM, the GI50 [44] was 0.0795 µM and the TGI [44] was 16.8 µM. It also gave a GI50 [45] of 0.0192 µM, a TGI [45] of 0.0773 µM and a GI50 [46] of 9.41 µM. It also gave a TGI [46] of 50.4 µM.
